Laboratory results from article PMC6356859 (ACS Omega, 2019).
Entries after “also recorded” stand apart in the source; their conditions may differ. Read-outs that look alike come from different tables or passages of the source.

Columns and labels:
[1] = system: EBOV; conditions: cited from earlier work
[2] = system: EBOV; experiment: microbe, parasite or virus in culture; format: cell-based, Ebola virus
[3] = system: EBOV; conditions: cited from earlier work; remark: listed apart in the source
[4] = system: EBOV; conditions: read-out: IC50 for the inhibition of virus entry in cells; cited from earlier work

In the case of `CCN(CC)CCCC(C)Nc1ccnc2cc(Cl)ccc12` (stereo not shown) [chloroquine], the EC50 [1] is listed as 4 µM.

With `Nc1nc2c(ncn2COCCO)c(=O)[nH]1` [Acyclovir] the “EBOV activity (in words)” value [2] was “lacked an activity”.

Work on `C[C@H]1[C@H](OC(=O)CCC(=O)O)O[C@@H]2O[C@@]3(C)CC[C@H]4[C@H](C)CC[C@@H]1[C@@]24OO3` [Artesunate] yielded an IC50 ([2]; Zaire ebolavirus, HeLa, read-out: IC50 (EBOV inhibitory activity)) of 8.2 µM.

For `NC(=O)c1nc(F)c[nH]c1=O` [Favipiravir (T-705), Favipiravir], the EC50 [3] is listed as 10 to 63 µg/mL, the IC50 [3] is listed as 67 µM and the “EBOV activity (in words)” value [2] is listed as “inactive; also recorded: no activity at the concentrations tested”.

In the case of `CCN(CC)Cc1cc(Nc2ccnc3cc(Cl)ccc23)ccc1O` [amodiaquine], the IC50 [4] is listed as 2.6 µM.

With `Clc1ccc2c(N3CCN(CCCN4CCN(c5ccnc6cc(Cl)ccc56)CC4)CC3)ccnc2c1` [Piperaquine Phosphate 4H20] the “EBOV activity (in words)” value [2] was “inactive”.

For `C[C@H]1Cc2c([nH]c3cc(Cl)c(F)cc23)[C@@]2(N1)C(=O)Nc1ccc(Cl)cc12` [Cipargamin], the selectivity indexes [2] was under 5.

For `CCCCN(CCCC)CC(O)c1cc(Cl)cc2c1-c1ccc(Cl)cc1/C2=C/c1ccc(Cl)cc1` (stereo not shown) [Lumefantrine], the “EBOV activity (in words)” value [2] was “inactive”.
